Experimental data taken from ChEMBL document CHEMBL3992519 (J Med Chem, 2017).

Experiments:
[1] = Solubility of the compound in saline; assay type: physicochemical; conditions: buffer
[2] = Selectivity index, ratio of IC50 for human OX2R expressed in CHOK1 cells to IC50 for human OX1R expressed in CHOK1 cells
[3] = target: T1, Orexin/Hypocretin receptor type 1 (Homo sapiens, UniProt O43613); experiment: Antagonist activity at human OX1R expressed in CHOK1 cells assessed as inhibition of orexin A-induced intracellular calcium level preincubated for 15 mins followed by orexin A addition by Fura-2-AM dye based fluorescence assay
T1 sequence (O43613 whole entry): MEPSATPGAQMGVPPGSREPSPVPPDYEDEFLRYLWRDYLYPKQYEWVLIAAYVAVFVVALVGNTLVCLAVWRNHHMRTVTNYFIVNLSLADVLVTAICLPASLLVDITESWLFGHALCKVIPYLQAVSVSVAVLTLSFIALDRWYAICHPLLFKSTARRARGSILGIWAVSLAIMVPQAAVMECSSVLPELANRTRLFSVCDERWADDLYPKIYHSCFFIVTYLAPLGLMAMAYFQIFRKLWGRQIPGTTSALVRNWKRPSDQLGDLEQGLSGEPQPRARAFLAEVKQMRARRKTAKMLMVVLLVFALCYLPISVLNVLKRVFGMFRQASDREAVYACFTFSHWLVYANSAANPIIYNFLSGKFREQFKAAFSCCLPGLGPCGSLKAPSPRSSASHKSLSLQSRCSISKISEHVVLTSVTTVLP

[4] = Solubility of the compound in water; assay type: physicochemical; conditions: buffer

SMILES | solubility [1] | Ratio IC50 [2] | Ki [3] | solubility [4]
COc1ccc2c3c1O[C@H]1[C@H](N(C)C(=O)/C=C/c4ccoc4)CC[C@@]4(O)[C@@H](C2)N(S(=O)(=O)c2cccc(F)c2)CC[C@]314 | Insoluble | <88.4 | 7.6 nM | Insoluble
COc1ccc2c3c1O[C@H]1[C@H](N(C)C(=O)/C=C/c4ccoc4)CC[C@@]4(O)[C@@H](C2)N(S(=O)(=O)c2ccc(C(F)(F)F)cc2)CC[C@]314 | Insoluble | <88.4 | 12.6 nM | Insoluble
COc1ccc2c3c1O[C@H]1[C@H](N(C)C(=O)/C=C/c4ccoc4)CC[C@@]4(O)[C@@H](C2)N(S(=O)(=O)c2ccccc2Cl)CC[C@]314 | Insoluble | <88.4 | 1.93 nM | Insoluble
CN(C)c1ccc(S(=O)(=O)N2CC[C@]34c5c6ccc(O)c5O[C@H]3[C@H](N(C)C(=O)/C=C/c3ccoc3)CC[C@@]4(O)[C@H]2C6)cc1 |  |  | 320 nM | 
COc1ccc2c3c1O[C@H]1[C@H](N(C)C(=O)/C=C/c4ccoc4)CC[C@@]4(O)[C@@H](C2)N(S(=O)(=O)c2ccc(C)cc2)CC[C@]314 | Insoluble | <88.4 | 5.85 nM | Insoluble
CCCCS(=O)(=O)N1CC[C@]23c4c5ccc(OC)c4O[C@H]2[C@H](N(C)C(=O)/C=C/c2ccoc2)CC[C@@]3(O)[C@H]1C5 | Insoluble | <88.4 | 5.94 nM | Insoluble
COc1ccc2c3c1O[C@H]1[C@H](N(C)C(=O)/C=C/c4ccoc4)CC[C@@]4(O)[C@@H](C2)N(S(=O)(=O)c2ccccc2C)CC[C@]314 | Insoluble | <88.4 | 1.7 nM | Insoluble
COc1ccc2c3c1O[C@H]1[C@H](N(C)C(=O)/C=C/c4ccoc4)CC[C@@]4(O)[C@@H](C2)N(S(=O)(=O)c2ccccc2Br)CC[C@]314 | Insoluble | <88.4 | 2.1 nM | Insoluble
COc1ccc2c3c1O[C@H]1[C@H](N(C)C(=O)/C=C/c4ccoc4)CC[C@@]4(O)[C@@H](C2)N(S(=O)(=O)c2ccc(C#N)cc2)CC[C@]314 | Insoluble | <88.4 | 13.9 nM | Insoluble
COc1ccc2c3c1O[C@H]1[C@H](N(C)C(=O)/C=C/c4ccoc4)CC[C@@]4(O)[C@@H](C2)N(S(=O)(=O)c2cccc([N+](=O)[O-])c2)CC[C@]314 | Insoluble | <88.4 | 5.05 nM | Insoluble
COc1ccc2c3c1O[C@H]1[C@H](N(C)C(=O)/C=C/c4ccoc4)CC[C@@]4(O)[C@@H](C2)N(S(=O)(=O)c2cccc(C(F)(F)F)c2)CC[C@]314 | Insoluble | <88.4 | 6.19 nM | Insoluble
COc1ccc2c3c1O[C@H]1[C@H](N(C)C(=O)/C=C/c4ccoc4)CC[C@@]4(O)[C@@H](C2)N(C(C)=O)CC[C@]314 | Insoluble | <88.4 | 541 nM | Insoluble
COc1ccc2c3c1O[C@H]1[C@H](N(C)C(=O)/C=C/c4ccoc4)CC[C@@]4(O)[C@@H](C2)N(S(=O)(=O)c2ccc(Br)cc2)CC[C@]314 | Insoluble | <88.4 | 6.21 nM | Insoluble
COc1ccc2c3c1O[C@H]1[C@H](N(C)C(=O)/C=C/c4ccoc4)CC[C@@]4(O)[C@@H](C2)N(S(=O)(=O)c2ccccc2N(C)C)CC[C@]314.Cl | Insoluble | <88.4 | 1.92 nM | Insoluble
COc1ccc2c3c1O[C@H]1[C@H](N(C)C(=O)/C=C/c4ccoc4)CC[C@@]4(O)[C@@H](C2)N(S(=O)(=O)c2cccc(C#N)c2)CC[C@]314 | Insoluble | <88.4 | 7.3 nM | Insoluble
COc1ccc2c3c1O[C@H]1[C@H](N(C)C(=O)/C=C/c4ccoc4)CC[C@@]4(O)[C@@H](C2)N(S(=O)(=O)c2cccc(Cl)c2)CC[C@]314 | Insoluble | <88.4 | 3.47 nM | Insoluble
COc1ccc2c3c1O[C@H]1[C@H](N(C)C(=O)/C=C/c4ccoc4)CC[C@@]4(O)[C@@H](C2)N(S(=O)(=O)c2ccccc2C#N)CC[C@]314 | Insoluble | <88.4 | 1.96 nM | Insoluble

SMILES | solubility [1] | Ratio IC50 [2] | Ki [3] | solubility [4]
COc1cccc(S(=O)(=O)N2CC[C@]34c5c6ccc(OC)c5O[C@H]3[C@H](N(C)C(=O)/C=C/c3ccoc3)CC[C@@]4(O)[C@H]2C6)c1 | Insoluble | <88.4 | 2.44 nM | Insoluble
CN(Cc1ccccc1)[C@@H]1CC[C@@]2(O)[C@H]3Cc4ccc(O)c5c4[C@@]2(CCN3CC2CC2)[C@H]1O5.Cl | Insoluble | <88.4 |  | Insoluble
COc1ccc2c3c1O[C@H]1[C@H](N(C)C(=O)/C=C/c4ccoc4)CC[C@@]4(O)[C@@H](C2)N(S(=O)(=O)c2ccccc2C(F)(F)F)CC[C@]314 | Insoluble | <88.4 | 2.05 nM | Insoluble
CN(C(=O)/C=C/c1ccccc1)[C@@H]1CC[C@@]2(O)[C@H]3Cc4ccc(O)c5c4[C@@]2(CCN3CC2CC2)[C@H]1O5.Cl | Insoluble | <88.4 | 389 nM | Insoluble
COc1ccc(S(=O)(=O)N2CC[C@]34c5c6ccc(OC)c5O[C@H]3[C@H](N(C)C(=O)/C=C/c3ccoc3)CC[C@@]4(O)[C@H]2C6)cc1 | Insoluble | <88.4 | 8.99 nM | Insoluble
COc1ccc2c3c1O[C@H]1[C@H](N(C)C(=O)/C=C/c4ccoc4)CC[C@@]4(O)[C@@H](C2)N(S(=O)(=O)c2ccc(Cl)cc2)CC[C@]314 | Insoluble | <88.4 | 5.13 nM | Insoluble
COc1ccc2c3c1O[C@H]1[C@H](N(C)C(=O)/C=C/c4ccoc4)CC[C@@]4(O)[C@@H](C2)N(S(=O)(=O)c2cccc(N(C)C)c2)CC[C@]314.Cl | Insoluble | <88.4 | 7.25 nM | Insoluble
COc1ccc2c3c1O[C@H]1[C@H](N(C)C(=O)/C=C/c4ccoc4)CC[C@@]4(O)[C@@H](C2)N(S(=O)(=O)c2cccc(Br)c2)CC[C@]314 | Insoluble | <88.4 | 2.27 nM | Insoluble
COc1ccc2c3c1O[C@H]1[C@H](N(C)C(=O)/C=C/c4ccoc4)CC[C@@]4(O)[C@@H](C2)N(S(=O)(=O)C2CC2)CC[C@]314 | Insoluble | <88.4 | 12.1 nM | Insoluble
COc1ccc2c3c1O[C@H]1[C@H](N(C)C(=O)/C=C/c4ccoc4)CC[C@@]4(O)[C@@H](C2)N(S(=O)(=O)c2ccc([N+](=O)[O-])cc2)CC[C@]314 | Insoluble | <88.4 | 12.5 nM | Insoluble
CN(C(=O)/C=C/c1ccco1)[C@@H]1CC[C@@]2(O)[C@H]3Cc4ccc(O)c5c4[C@@]2(CCN3CC2CC2)[C@H]1O5 | Insoluble | <88.4 | 751 nM | Insoluble
COc1ccc2c3c1O[C@H]1[C@H](N(C)C(=O)/C=C/c4ccoc4)CC[C@@]4(O)[C@@H](C2)N(S(=O)(=O)c2ccc(F)cc2)CC[C@]314 | Insoluble | <88.4 | 4.05 nM | Insoluble
COc1ccc2c3c1O[C@H]1[C@H](N(C)C(=O)/C=C/c4ccoc4)CC[C@@]4(O)[C@@H](C2)N(S(=O)(=O)c2cccc(C)c2)CC[C@]314 | Insoluble | <88.4 | 2.98 nM | Insoluble
COc1ccc2c3c1O[C@H]1[C@H](N(C)C(=O)/C=C/c4ccccn4)CC[C@@]4(O)[C@@H](C2)N(S(=O)(=O)c2ccccc2N(C)C)CC[C@]314 |  |  | 1.36 nM | 
COc1ccc2c3c1O[C@H]1[C@H](N(C)C(=O)/C=C/c4ccoc4)CC[C@@]4(O)[C@@H](C2)N(S(=O)(=O)c2ccccc2F)CC[C@]314 | Insoluble | <88.4 | 2.07 nM | Insoluble
COc1ccc2c3c1O[C@H]1[C@H](N(C)C(=O)/C=C/c4ccoc4)CC[C@@]4(O)[C@@H](C2)N(S(=O)(=O)c2c(C)cc(C)cc2C)CC[C@]314 | Insoluble | <88.4 | 4.16 nM | Insoluble
COc1ccc2c3c1O[C@H]1[C@H](N(C)C(=O)/C=C/c4cccnc4)CC[C@@]4(O)[C@@H](C2)N(S(=O)(=O)c2ccccc2N(C)C)CC[C@]314 |  |  | 42.3 nM | 
